Measurements as given in PubChem BioAssay AID1963430 (Molecular Pharmacology Branch, DTP, NCI, 2024).
Several values for one entry are separate records, joined by “and”; a condition that tells them apart may be missing. Equal values may be shown once.

Test system: 521955-158-R2-J5-PDC complex spheroid growth, % test/control
Assay: Anticancer human tumor 521955-158-R2-J5-PDC patient-derived pancreatic carcinoma cell line growth inhibition [Asc]
Conditions: for IC50: curve of first compound; for viability, T/C: stronger effect = lower value
Experimental: Multicellular complex tumor spheroid response to apoptosis pathway targeting inhibitors Alrizomadlin, Pelcitoclax, and Dasminapant in combination with a variety of drugs and investigational agents in selected tumor cell lines
The MDM2 inhibitor alrizomadlin, the Bcl-2/Bcl-xL inhibitor pelcitoclax, and the IAPs inhibitor dasminapant were evaluated both individually and in combination with standard of care and investigational anticancer small molecules within a complex spheroid model of solid tumors. . Complex spheroids include a stromal component modeled by human endothelial cells (HUVEC) and fibroblasts modeled by human mesenchymal stem cells (MSCs). The concentration ranges selected for each drug and investigational agent were based upon clinically achievable concentrations if the clinical Cmax of the agent was known.
Compounds. The drugs and investigational agents: alrizomadlin (APG-115; NSC831270), pelcitoclax (APG-1252; NSC835773), dasminapant (APG-1387;NSC834197), TAK-243 (NSC785004), copanlisib (NSC809693), olaparib (NSC753686), talazoparib (NSC767125), cobimetinib (NSC 768068), eltanexor (KPT-8602, NSC 794443), abemaciclib (NSC 768073), sotorasib (NSC818433), adagrasib (NSC 831453), MRTX-1133 (NSC 836407), Iadademestat (ORY1001, NSC 806812), and RMC-4630 (NSC839698), were obtained from the NCI Developmental Therapeutics Program Chemical Repository. The FDA-approved anticancer drug set is available from the Developmental Therapeutics Program at https://dtp.cancer.gov/organization/dscb/obtaining/available plates.htm. […] The stock solutions were prepared in dimethyl sulfoxide (DMSO, Sigma-Aldrich, St. Louis, MO, cat. D2650) at 800-fold the tested concentration and stored at -70 degrees C prior to their use. All drugs and investigational agents were tested over a range starting from a high concentration at or near the clinical Cmax and decreasing in half-log increments. If the clinical Cmax for an agent had not been determined, the highest concentration tested was 10 microM.
The patient-derived cancer (PDC) cell lines include five colon adenocarcinomas: 186277-243-T-J2-PDC, 616215-338-R-J1-PDC, 439559-082-T-J2-PDC, 463943-066-T-J2-PDC, and 519858-162-T-J1-PDC; three pancreatic carcinomas: 323965-272-R-J2-PDC, 521955-158-R6-J3-PDC, and 521955-158-R2-J5-PDC; two uterine sarcomas: 327498-152-R-J2-PDC and 993429-296-R-J1-PDC; two rhabdomyosarcomas: 755483-174-R-J1-PDC and 772245-204-R-J1-PDC; two soft tissue sarcomas: 126254-015-R-J1-PDC and 494315-158-R-J1-PDC; two malignant fibrous histiocytomas: 317291-083-R-J1-PDC and 596521-263-R-J1-PDC; two breast carcinomas: 171881-019-R-J1-PDC and 885512-296-R-J2-PDC; and one ovarian carcinoma: 6556581-035-R-J-PDC were obtained from the NCI PDMR, (https://pdmr.cancer.gov). The established cell lines HSSY-2 synovial sarcoma (RRID:CVCL 8719), SYO-1 synovial sarcoma (RRID:CVCL_7146), MPNST malignant peripheral neural sheath tumor were obtained from the Sloan Kettering Institute. The following established cell lines were purchased from the American Type Culture Collection (ATCC, Manassas, VA), Sor the received from the NCI repository:, PANC-1 pancreatic carcinoma (CRL-1469, RRID:CVCL_0480), OVCAR-5 ovarian carcinoma (RRID:CVCL_1628), OVCAR-8 ovarian carcinoma (RRID:CVCL_1629), , MCF-7 breast carcinoma (CRL-12584, RRID:CVCL_0031), MDA-MB-231 breast carcinoma (CRL-12532, RRID:CVCL_0062), NCI-H1876 small cell lung carcinoma (CRL-5902, RRID:CVCL_1503), NCI-H510A small cell lung carcinoma (HTB-184, RRID:CVCL_1565), NCI-H1417 (CRL-5869, RRID:CVCL_1469), and NCI-H196 small cell lung carcinoma (CRL-5823, RRID:CVCL_1509). Dr. Peter Houghton (Greehey Children's Cancer Research Institute, University of Texas Health Science Center, San Antonio, TX) provided Rh-18 rhabdomyosarcoma (RRID:CVCL_1659). Pooled donor human umbilical vein endothelial cells (HUVEC, Lonza, cat. CC-2519) and human mesenchymal stem cells (hMSC, Lonza, cat. PT-2501) were purchased from Lonza (Walkersville, MD).
Cell Culture. […]
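Note: spheroids exposed to agents for 7 days before readout.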
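Throughout, for viability, T/C: 100% = DMSO vehicle control viability.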

O=C(c1ccc(F)c(F)c1Nc1ccc(I)cc1F)N1CC(O)([C@@H]2CCCCN2)C1 + CCN1C(C(=O)NC23CCC(C(=O)O)(CC2)CC3)C(c2cccc(Cl)c2F)C2(C(=O)Nc3cc(Cl)ccc32)C12CCCCC2
IC50 (second compound 0.03 µM): 77 nM | IC50 (second compound 0.0949 µM): 39.4 nM | IC50 (second compound 0.3 µM): 165 nM | IC50 (second compound 0.949 µM): 156 nM | IC50 (second compound 3 µM): 620 nM | viability, T/C (second compound 0.03 µM, first compound 0.00316 µM): 65.8% | viability, T/C (second compound 0.03 µM, first compound 0.01 µM): 56% | viability, T/C (second compound 0.03 µM, first compound 0.0316 µM): 62.5% | viability, T/C (second compound 0.03 µM, first compound 0.1 µM): 45.1% | viability, T/C (second compound 0.03 µM, first compound 0.316 µM): 37.2% | viability, T/C (second compound 0.03 µM, first compound 1 µM): 29.1% | viability, T/C (second compound 0.0949 µM, first compound 0.00316 µM): 80.7% | viability, T/C (second compound 0.0949 µM, first compound 0.01 µM): 80.1% | viability, T/C (second compound 0.0949 µM, first compound 0.0316 µM): 51.1% | viability, T/C (second compound 0.0949 µM, first compound 0.1 µM): 51.7% | viability, T/C (second compound 0.0949 µM, first compound 0.316 µM): 43.1% | viability, T/C (second compound 0.0949 µM, first compound 1 µM): 35.4% | viability, T/C (second compound 0.3 µM, first compound 0.00316 µM): 64.5% | viability, T/C (second compound 0.3 µM, first compound 0.01 µM): 83.3% | viability, T/C (second compound 0.3 µM, first compound 0.0316 µM): 85.2% | viability, T/C (second compound 0.3 µM, first compound 0.1 µM): 60% | viability, T/C (second compound 0.3 µM, first compound 0.316 µM): 40.9% | viability, T/C (second compound 0.3 µM, first compound 1 µM): 33.1% | viability, T/C (second compound 0.949 µM, first compound 0.00316 µM): 93.3% | viability, T/C (second compound 0.949 µM, first compound 0.01 µM): 91.3% | viability, T/C (second compound 0.949 µM, first compound 0.0316 µM): 82.4% | viability, T/C (second compound 0.949 µM, first compound 0.1 µM): 57.3% | viability, T/C (second compound 0.949 µM, first compound 0.316 µM): 37.8% | viability, T/C (second compound 0.949 µM, first compound 1 µM): 38.1% | viability, T/C (second compound 3 µM, first compound 0.00316 µM): 107% | viability, T/C (second compound 3 µM, first compound 0.01 µM): 102% | viability, T/C (second compound 3 µM, first compound 0.0316 µM): 80% | viability, T/C (second compound 3 µM, first compound 0.1 µM): 71.8% | viability, T/C (second compound 3 µM, first compound 0.316 µM): 61.8% | viability, T/C (second compound 3 µM, first compound 1 µM): 42.5%

Cc1nc(N2CCC3(CC2)COC(C)C3N)c(CO)nc1Sc1ccnc(N)c1Cl (stereo unspecified)
viability, T/C (compound 0.00949 µM): 70.6% and 72.1% and 91.2% | viability, T/C (compound 0.03 µM): 68.2% and 54.1% and 87.1% | viability, T/C (compound 0.0949 µM): 59.4% and 48.2% and 62.4% | viability, T/C (compound 0.3 µM): 48.2% (2×) and 65.5% | viability, T/C (compound 0.949 µM): 55.2% and 53.1% and 52.7% | viability, T/C (compound 3 µM): 51.9% and 43.2% and 57.4%

O=C(c1cc(Cc2n[nH]c(=O)c3ccccc23)ccc1F)N1CCN(C(=O)C2CC2)CC1 + CNC(C)C(=O)NC1CN(S(=O)(=O)c2cccc(S(=O)(=O)N3CCC4CCC(C(=O)NC(c5ccccc5)c5ccccc5)N4C(=O)C(NC(=O)C(C)NC)C3)c2)CCC2CCC(C(=O)NC(c3ccccc3)c3ccccc3)N2C1=O
IC50 (second compound 0.01 µM): > 10000 nM | IC50 (second compound 0.0316 µM): > 10000 nM | IC50 (second compound 0.1 µM): > 10000 nM | IC50 (second compound 0.316 µM): > 10000 nM | IC50 (second compound 1 µM): > 10000 nM | viability, T/C (second compound 0.01 µM, first compound 0.0316 µM): 74.8% | viability, T/C (second compound 0.01 µM, first compound 0.1 µM): 92.3% | viability, T/C (second compound 0.01 µM, first compound 0.316 µM): 60.6% | viability, T/C (second compound 0.01 µM, first compound 1 µM): 66.1% | viability, T/C (second compound 0.01 µM, first compound 3.16 µM): 73.4% | viability, T/C (second compound 0.01 µM, first compound 10 µM): 64.3% | viability, T/C (second compound 0.0316 µM, first compound 0.0316 µM): 66.8% | viability, T/C (second compound 0.0316 µM, first compound 0.1 µM): 77.8% | viability, T/C (second compound 0.0316 µM, first compound 0.316 µM): 98.6% | viability, T/C (second compound 0.0316 µM, first compound 1 µM): 75.8% | viability, T/C (second compound 0.0316 µM, first compound 3.16 µM): 64.9% | viability, T/C (second compound 0.0316 µM, first compound 10 µM): 64.6% | viability, T/C (second compound 0.1 µM, first compound 0.0316 µM): 71.8% | viability, T/C (second compound 0.1 µM, first compound 0.1 µM): 87.9% | viability, T/C (second compound 0.1 µM, first compound 0.316 µM): 76.4% | viability, T/C (second compound 0.1 µM, first compound 1 µM): 61.1% | viability, T/C (second compound 0.1 µM, first compound 3.16 µM): 74.6% | viability, T/C (second compound 0.1 µM, first compound 10 µM): 73.2% | viability, T/C (second compound 0.316 µM, first compound 0.0316 µM): 89% | viability, T/C (second compound 0.316 µM, first compound 0.1 µM): 95.7% | viability, T/C (second compound 0.316 µM, first compound 0.316 µM): 82.1% | viability, T/C (second compound 0.316 µM, first compound 1 µM): 71.2% | viability, T/C (second compound 0.316 µM, first compound 3.16 µM): 71.5% | viability, T/C (second compound 0.316 µM, first compound 10 µM): 61.5% | viability, T/C (second compound 1 µM, first compound 0.0316 µM): 73% | viability, T/C (second compound 1 µM, first compound 0.1 µM): 81.4% | viability, T/C (second compound 1 µM, first compound 0.316 µM): 78.8% | viability, T/C (second compound 1 µM, first compound 1 µM): 67.6% | viability, T/C (second compound 1 µM, first compound 3.16 µM): 62.5% | viability, T/C (second compound 1 µM, first compound 10 µM): 66.8%
